These results are taken from PMC8303674, “Discovery of a Novel Triazolopyridine Derivative as a Tankyrase Inhibitor” (International Journal of Molecular Sciences, 2021).

For one assay, the target named is T1, TNKS2 (tankyrase 2) (Homo sapiens, UniProt Q9H2K2).
T1 sequence (Q9H2K2 1-1166): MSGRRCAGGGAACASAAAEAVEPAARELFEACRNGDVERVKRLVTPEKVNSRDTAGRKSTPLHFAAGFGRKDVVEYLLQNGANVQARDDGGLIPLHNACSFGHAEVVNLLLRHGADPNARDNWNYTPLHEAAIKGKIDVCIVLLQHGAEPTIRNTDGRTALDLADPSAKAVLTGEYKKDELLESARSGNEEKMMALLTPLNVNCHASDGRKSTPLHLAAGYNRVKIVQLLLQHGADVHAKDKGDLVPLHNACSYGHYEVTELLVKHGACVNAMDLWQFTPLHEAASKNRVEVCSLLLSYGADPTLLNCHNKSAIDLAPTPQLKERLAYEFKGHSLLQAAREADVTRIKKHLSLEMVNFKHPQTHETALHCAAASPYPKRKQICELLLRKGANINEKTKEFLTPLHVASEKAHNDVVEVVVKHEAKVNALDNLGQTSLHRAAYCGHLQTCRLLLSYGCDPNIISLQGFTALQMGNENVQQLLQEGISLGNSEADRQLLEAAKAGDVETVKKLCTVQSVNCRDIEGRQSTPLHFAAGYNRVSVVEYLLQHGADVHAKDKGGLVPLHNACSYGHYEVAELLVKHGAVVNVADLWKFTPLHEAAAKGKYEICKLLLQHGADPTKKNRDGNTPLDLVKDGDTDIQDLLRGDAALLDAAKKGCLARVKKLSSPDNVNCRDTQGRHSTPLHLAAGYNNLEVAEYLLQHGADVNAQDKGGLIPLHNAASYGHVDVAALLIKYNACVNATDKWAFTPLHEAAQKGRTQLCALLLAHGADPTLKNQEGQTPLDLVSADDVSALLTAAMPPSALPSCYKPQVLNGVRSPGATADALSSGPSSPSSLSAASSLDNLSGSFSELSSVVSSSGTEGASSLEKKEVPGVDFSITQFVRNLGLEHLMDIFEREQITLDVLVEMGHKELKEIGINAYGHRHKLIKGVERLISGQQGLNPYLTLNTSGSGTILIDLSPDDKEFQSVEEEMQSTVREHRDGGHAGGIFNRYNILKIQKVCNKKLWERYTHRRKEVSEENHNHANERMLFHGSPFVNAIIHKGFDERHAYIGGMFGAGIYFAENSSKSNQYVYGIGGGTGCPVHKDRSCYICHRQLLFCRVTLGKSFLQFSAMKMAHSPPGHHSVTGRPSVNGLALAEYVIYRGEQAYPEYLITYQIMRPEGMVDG
In words: cell-free colorimetric TNKS2 activity assay (BPS Bioscience). Format: biochemical. An excerpt: cell-free colorimetric TNKS2 activity assay (BPS Bioscience) on TNKS2 (tankyrase 2) | IC50 (μM) of TI-12403 against TNKS1 and TNKS2.

The target of another assay is T2, TNKS1 (tankyrase) (Homo sapiens, UniProt O95271).
T2 construct: gene TNKS
In words: cell-free colorimetric TNKS1 activity assay (BPS Bioscience). The format is biochemical. An excerpt:
cell-free colorimetric TNKS1 activity assay (BPS Bioscience) on TNKS1 (tankyrase) | IC50 (μM) of TI-12403 against TNKS1 and TNKS2.

pIC50: −log10 of the molar value.

T2 sequence (O95271 whole entry): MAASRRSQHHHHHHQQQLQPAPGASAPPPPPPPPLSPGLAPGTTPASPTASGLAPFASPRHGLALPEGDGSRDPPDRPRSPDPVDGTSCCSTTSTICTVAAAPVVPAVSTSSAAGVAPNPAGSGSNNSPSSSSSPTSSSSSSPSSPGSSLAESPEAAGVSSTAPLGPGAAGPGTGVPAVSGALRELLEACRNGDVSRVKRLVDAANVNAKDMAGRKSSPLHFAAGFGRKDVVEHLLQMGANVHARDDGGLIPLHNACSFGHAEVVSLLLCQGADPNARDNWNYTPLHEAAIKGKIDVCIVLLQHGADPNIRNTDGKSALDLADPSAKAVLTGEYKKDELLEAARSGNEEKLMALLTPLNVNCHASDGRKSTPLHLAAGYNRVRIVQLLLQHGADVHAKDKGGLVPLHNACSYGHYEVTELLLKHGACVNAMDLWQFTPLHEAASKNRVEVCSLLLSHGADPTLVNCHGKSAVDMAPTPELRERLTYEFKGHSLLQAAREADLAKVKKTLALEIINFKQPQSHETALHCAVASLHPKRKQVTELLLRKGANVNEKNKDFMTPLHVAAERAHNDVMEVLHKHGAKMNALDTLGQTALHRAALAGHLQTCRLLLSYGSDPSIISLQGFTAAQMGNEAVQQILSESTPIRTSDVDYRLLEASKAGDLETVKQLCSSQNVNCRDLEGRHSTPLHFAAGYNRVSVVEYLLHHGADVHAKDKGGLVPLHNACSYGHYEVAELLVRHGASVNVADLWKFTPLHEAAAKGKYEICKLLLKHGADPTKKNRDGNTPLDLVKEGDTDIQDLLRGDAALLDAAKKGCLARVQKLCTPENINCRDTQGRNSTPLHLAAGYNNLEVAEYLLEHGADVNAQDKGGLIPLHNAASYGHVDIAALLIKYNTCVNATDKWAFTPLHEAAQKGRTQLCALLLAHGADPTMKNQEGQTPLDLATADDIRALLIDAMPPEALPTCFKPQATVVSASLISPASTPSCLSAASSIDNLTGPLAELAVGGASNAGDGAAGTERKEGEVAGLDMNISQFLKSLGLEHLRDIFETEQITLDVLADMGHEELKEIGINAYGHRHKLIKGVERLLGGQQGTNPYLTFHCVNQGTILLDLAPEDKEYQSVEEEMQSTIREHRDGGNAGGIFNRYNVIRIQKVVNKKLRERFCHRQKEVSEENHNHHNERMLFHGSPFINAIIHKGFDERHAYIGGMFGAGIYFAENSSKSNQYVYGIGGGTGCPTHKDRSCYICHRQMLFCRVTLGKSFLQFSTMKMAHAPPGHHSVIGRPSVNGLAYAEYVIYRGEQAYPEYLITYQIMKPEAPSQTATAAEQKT

For the compound `N#Cc1ccccc1N1CCC(C(=O)Nc2nnc3ccccn23)CC1` [TI-12403, N-([1,2,4]triazolo[4,3-a]pyridin-3-yl)-1-(2-cyanophenyl)piperidine-4-carboxamide], the pIC50 is 7.22 against TNKS2 (tankyrase 2) and 7.54 against TNKS1 (tankyrase).

The pIC50 is −log10 of the IC50, conventionally taken in molar units. Lower therefore signals a high IC50.
